How the values were obtained:
[1] = tested on: veines saphènes de lapin; assay: contraction of isolated rabbit saphenous veins produced by KCl (40 mM); details: for EC50: potentiation of KCl (40 mM) contractions of rabbit saphenous veins, read-out: DE50 (the source's name)
From the text: L'effet contractile est mesuré in vitro : • par la force de contraction développée par des anneaux vasculaires quiescents ou stimulés (soit électriquement soit par des agents physiologiques) et maintenus dans des conditions isométriques, • par la pression développée par des réseaux vasculaires perfusés à débit constant.
Les composés de formule (1) et leurs sels éventuels augmentent la contraction des veines saphènes animales produite par la noradrénaline et la dépolarisation (solution hyperpotassique) sans affecter, dans la majorité des cas, les réponses contractiles artérielles. A titre illustratif, les composés des exemples 3, 5, 8, 11, 13, 15, 31 (10 nM à […]) augmentent de plus de 40 % (DE50 ± 0,3 microM) les contractions des veines saphènes de lapin produites par le KCl (40 mM).

[2] = free radical scavenging with DPPH as stable free radical; details: DPPH model
From the text: L'effet "piégeur de radicaux libres" global est étudié in vitro par un modèle utilisant le 1,1-diphényl-2-picrylhydrazyl (DPPH) comme radical libre stable, méthode dérivée de celle décrite par Lamaison et col., Plantes Médic. et Phytothérapie, XXII, 1988, 231-234.

[3] = tested on: rat; assay: carrageenan-induced pleurisy in the rat; assay type: in vivo; details: twice i.p. 5 mg/kg, 6 hours after carrageenan injection
Description: L'activité antiinflammatoire est démontrée par la mesure de l'inhibition de l'oedème et de la migration leucocytaire après induction d'une pleurésie chez le rat par injection de carragénine dans la cavité pleurale (Almeida et col., J. Pharmacol. Exp. Therap., 1980, 214 : 74).
A titre illustratif, les composés des exemples 21, 23 administrés deux fois en i.p. à la dose de 5 mg/kg inhibent l'oedème et la migration leucocytaire dans la cavité pleurale, 6 heures après injection de carragénine dans le modèle de la pleurésie chez le rat.

[4] = tested on: hyperperméabilité vasculaire induite par le zymosan; assay: vascular hyperpermeability induced by zymosan, in vivo; details: 2 and 4 hours after per os 1 à 20 mg/kg
From the text: La perméabilité vasculaire est étudiée in vivo et in vitro par la mesure de l'extravasation d'albumine ou de colorant liant l'albumine (Bleu Evans). In vivo, l'hyperperméabilité est induite par l'injection d'une solution d'histamine, de bradykinine ou de zymosan. Les modèles in vitro permettent de réaliser des hyperpressions (sur un territoire vasculaire isolé) et/ou des réactions vasculaires inflammatoires.
A titre illustratif, les composés des exemples 28, 27, 25 diminuent l'hyperperméabilité vasculaire induite par le zymosan lorsque celle-ci est mesurée 2 et 4 heures après administration per os de 1 à 20 mg/kg.

| EC50 [1] [nM] | Compound | augmentation des contractions des veines saphènes de lapin produites par le KCl (40 mM) [1] [%] | also measured |
| --- | --- | --- | --- |
| ~300 | Nc1cccc(NC(=O)NN=c2c(=O)c3ccccc3c2=O)c1 [exemple 3, 2-[(3-Aminophenyl)aminocarbonylhydrazono]-2.3-dihydro1.3-dioxo-1H-indène] | > 40 | – |
| ~300 | Nc1ccc(NC(=O)NN=c2c(=O)c3ccccc3c2=O)cc1 [exemple 5, 2-[(4-Aminophenyl)aminocarbonylhydrazono]-2.3-dihydro-1.3-dioxo-1H-indène] | > 40 | – |
| – | O=C(NN=c1c(=O)c2ccccc2c1=O)Nc1ccccc1[N+](=O)[O-] [exemple 7, 2.3-Dihydro-1.3-dioxo-2-[(2-nitrophenyl)aminocarbonylhydrazono]-1H-indène] | – | effet antiradicalaire [2]: présentent un effet antiradicalaire |
| ~300 | O=C(NN=c1c(=O)c2ccccc2c1=O)Nc1cccc([N+](=O)[O-])c1 [exemple 8, 2.3-Dihydro-1.3-dioxo-2-[(3-nitrophenyl)aminocarbonylhydrazono]-1H-indène] | > 40 | – |
| – | O=C(NN=c1c(=O)c2ccccc2c1=O)Nc1ccc([N+](=O)[O-])cc1 [exemple 9, 2.3-Dihydro-1.3-dioxo-2-(4-nitrophenylaminocarbonylhydrazono)-1H-indène] | – | effet antiradicalaire [2]: présentent un effet antiradicalaire |
| ~300 | O=C(NN=c1c(=O)c2ccccc2c1=O)Nc1ccccn1 [exemple 11, 2.3-Dihydro-1.3-dioxo-2-[(2-pyridyl)aminocarbonylhydrazono]-1H-indène, chlorhydrate] | > 40 | – |
| ~300 | O=C(NN=c1c(=O)c2ccccc2c1=O)Nc1cccnc1 [exemple 13, 2.3-Dihydro-1.3-dioxo-2-[(3-pyridyl)aminocarbonylhydrazono]-1H-indène] | > 40 | – |
| – | O=C(NN=c1c(=O)c2cccc(F)c2c1=O)Nc1ccccc1 [exemple 21, 2.3-Dihydro-1.3-dioxo-4-fluoro-2-(phenylaminocarbonylhydrazono)-1H-indène] | – | migration leucocytaire dans la cavité pleurale [3]: inhibent; oedème [3]: inhibent |
| – | O=C(NN=c1c(=O)c2cccc(F)c2c1=O)Nc1cccnc1 [exemple 23, 2.3-Dihydro-1.3-dioxo-4-fluoro-2-[(3-pyridyl)aminocarbonylhydrazono]-1H-indène] | – | migration leucocytaire dans la cavité pleurale [3]: inhibent; oedème [3]: inhibent |
| – | O=C(NN=c1c(=O)c2cccc(F)c2c1=O)Nc1ccncc1 [exemple 25, 2.3-Dihydro-1.3-dioxo-4-fluoro-2-[(4-pyridyl)aminocarbonylhydrazono]-1H-indène] | – | hyperperméabilité vasculaire induite par le zymosan [4]: diminuent |
| – | O=C(NN=c1c(=O)c2ccc(F)cc2c1=O)Nc1ccccc1 [exemple 27, 2.3-Dihydro-1.3-dioxo-5-fluoro-2-(phenylaminocarbonylhydrazono)-1H-indène] | – | hyperperméabilité vasculaire induite par le zymosan [4]: diminuent |
| – | O=C(NN=c1c(=O)c2ccc(F)cc2c1=O)Nc1ccc(F)cc1 [exemple 28] | – | hyperperméabilité vasculaire induite par le zymosan [4]: diminuent |
| ~300 | O=C(NN=c1c(=O)c2ccc(F)cc2c1=O)Nc1ccncc1 [exemple 31, 2.3-Dihydro-1.3-dioxo-5-fluoro-2-[(4-pyridyl)aminocarbonylhydrazono]-1H-indène] | > 40 | – |
